Measured values as given in the supplement of paper PMC10307832.

Tests used:
Assay in all cases: relative viability (nuclei count vs DMSO), 5 days (fraction); higher = more cells survive
AT9283 + Vorinostat = compound: O=C(Nc1c[nH]nc1-c1nc2ccc(CN3CCOCC3)cc2[nH]1)NC1CC1 [AT9283] + O=C(CCCCCCC(=O)Nc1ccccc1)NO [Vorinostat] (partner 1 µM)
Outline: (§1)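 The day after seeding in 1536-well plates, lung cancer cell lines were treated by pin tool with a single drug, or with a fixed anchor-drug dose together with five library-drug doses (not always all listed) in √10 steps. After 5 days, a combined fix-and-stain solution (final 0.05% Triton X-100, 1% formaldehyde, 1 ug/ml Hoechst) was added. Nuclei counted on 4× images gave relative viability as treated counts over vehicle counts, reported as the median of duplicate plates.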

AT9283 + Lapatinib = compound: O=C(Nc1c[nH]nc1-c1nc2ccc(CN3CCOCC3)cc2[nH]1)NC1CC1 [AT9283] + CS(=O)(=O)CCNCc1ccc(-c2ccc3ncnc(Nc4ccc(OCc5cccc(F)c5)c(Cl)c4)c3c2)o1 [Lapatinib] (partner 2 µM)
Outline: as §1

AT9283 + Navitoclax = compound: O=C(Nc1c[nH]nc1-c1nc2ccc(CN3CCOCC3)cc2[nH]1)NC1CC1 [AT9283] + CC1(C)CCC(c2ccc(Cl)cc2)=C(CN2CCN(c3ccc(C(=O)NS(=O)(=O)c4ccc(N[C@H](CCN5CCOCC5)CSc5ccccc5)c(S(=O)(=O)C(F)(F)F)c4)cc3)CC2)C1 [Navitoclax] (partner 0.5 µM)
Outline: as §1

Cell Line | relative viability (AT9283 + Vorinostat; first compound 0.003 µM) | relative viability (AT9283 + Vorinostat; first compound 0.03 µM) | relative viability (AT9283 + Vorinostat; first compound 0.09487 µM) | relative viability (AT9283 + Vorinostat; first compound 0.3 µM) | relative viability (AT9283 + Lapatinib; first compound 0.003 µM) | relative viability (AT9283 + Lapatinib; first compound 0.03 µM) | relative viability (AT9283 + Lapatinib; first compound 0.09487 µM) | relative viability (AT9283 + Lapatinib; first compound 0.3 µM) | relative viability (AT9283 + Navitoclax; first compound 0.003 µM) | relative viability (AT9283 + Navitoclax; first compound 0.03 µM) | relative viability (AT9283 + Navitoclax; first compound 0.09487 µM) | relative viability (AT9283 + Navitoclax; first compound 0.3 µM)
LC-2-ad | 0.696 | 0.251 | 0.199 | 0.157 | 0.938 | 0.0948 | 0.0976 | 0.0947 | 0.506 | 0.232 | 0.0899 | 0.101
LCLC-97TM1 | 0.734 | 0.15 | 0.128 | 0.0905 | 0.746 | 0.15 | 0.129 | 0.126 | 0.335 | 0.117 | 0.107 | 0.144
LCLC-103H | 0.745 | 0.566 | 0.355 | 0.306 | – | – | – | – | – | – | – | –
LK-2 | 0.282 | 0.185 | 0.146 | 0.138 | 0.788 | 0.26 | 0.198 | 0.181 | 0.803 | 0.493 | 0.169 | 0.168
LOU-NH91 | 0.905 | 0.552 | 0.449 | 0.432 | 0.688 | 0.646 | 0.566 | 0.419 | 0.735 | 0.605 | 0.37 | 0.283
LU99A | 0.457 | 0.253 | 0.228 | 0.15 | 0.846 | 0.357 | 0.188 | 0.207 | 0.766 | 0.243 | 0.142 | 0.151
LXF-289 | 0.751 | 0.56 | 0.224 | 0.168 | 0.901 | 0.691 | 0.163 | 0.135 | 0.93 | 0.665 | 0.123 | 0.133
NCI-H23 | 0.523 | 0.363 | 0.183 | 0.177 | 0.968 | 0.395 | 0.225 | 0.207 | 0.741 | 0.538 | 0.423 | 0.174
NCI-H322M | 0.87 | 0.579 | 0.497 | 0.407 | 0.548 | 0.272 | 0.32 | 0.335 | 1.27 | 0.802 | 0.731 | 0.436
NCI-H358 | 0.54 | 0.119 | 0.0833 | 0.0819 | 0.413 | 0.192 | 0.176 | 0.16 | – | – | – | –
NCI-H460 | 0.856 | 0.639 | 0.158 | 0.0711 | 1.05 | 0.0247 | 0.0158 | 0.0301 | 1.23 | 0.987 | 0.0587 | 0.0315
NCI-H520 | 0.56 | 0.271 | 0.223 | 0.235 | 0.77 | 0.295 | 0.21 | 0.196 | 1.17 | 0.34 | 0.236 | 0.23
NCI-H522 | 0.782 | 0.549 | 0.527 | 0.376 | – | – | – | – | – | – | – | –
NCI-H596 | 0.642 | 0.675 | 0.686 | 0.428 | 0.845 | 0.884 | 0.623 | 0.404 | 1.05 | 0.839 | 0.689 | 0.481
NCI-H647 | 0.466 | 0.323 | 0.126 | 0.12 | 1.06 | 0.124 | 0.123 | 0.0895 | 1.03 | 0.542 | 0.125 | 0.0857
NCI-H650 | 0.405 | 0.375 | 0.282 | 0.146 | 0.832 | 0.842 | 0.252 | 0.199 | – | – | – | –
NCI-H661 | 0.858 | 0.359 | 0.316 | 0.384 | 0.471 | 0.518 | 0.276 | 0.286 | – | – | – | –
NCI-H727 | 1.07 | 0.866 | 0.815 | 0.499 | 0.847 | 0.435 | 0.28 | 0.249 | 0.532 | 0.235 | 0.154 | 0.11
NCI-H838 | 0.68 | 0.221 | 0.194 | 0.24 | 0.98 | 0.225 | 0.18 | 0.182 | 1.32 | 0.333 | 0.239 | 0.213
NCI-H1299 | – | – | – | – | 1.02 | 0.509 | 0.404 | 0.343 | 1.09 | 0.927 | 0.363 | 0.304
NCI-H1355 | 0.602 | 0.452 | 0.388 | 0.169 | 1.01 | 0.911 | 0.845 | 0.168 | 1.07 | 0.806 | 0.46 | 0.158
NCI-H1395 | 0.579 | 0.494 | 0.337 | 0.299 | 0.904 | 0.703 | 0.412 | 0.427 | 1.21 | 0.716 | 0.393 | 0.421
NCI-H1563 | – | – | – | – | 0.941 | 0.811 | 0.843 | 0.701 | – | – | – | –
NCI-H1648 | 0.378 | 0.468 | 0.325 | 0.308 | – | – | – | – | – | – | – | –
NCI-H1703 | – | – | – | – | 1.24 | 0.277 | 0.31 | 0.354 | 1.36 | 0.19 | 0.216 | 0.176
NCI-H1792 | – | – | – | – | 0.797 | 0.713 | 0.151 | 0.108 | 0.637 | 0.569 | 0.248 | 0.187
NCI-H2342 | 0.804 | 0.576 | 0.59 | 0.409 | – | – | – | – | – | – | – | –
SW 900 | 0.424 | 0.358 | 0.298 | 0.199 | – | – | – | – | – | – | – | –
